Source: publication PMC12703428, “Development of Granzyme A Turn‐ON Fluorescent Activity‐Based Probes” (Chembiochem, 2025)

Molecular target: T1, pro‐form of GzmA (without signal peptide) (Homo sapiens, UniProt P12544)
T1 construct: purchased R&D Systems 2905-SE-010
T1 sequence (P12544 29-262): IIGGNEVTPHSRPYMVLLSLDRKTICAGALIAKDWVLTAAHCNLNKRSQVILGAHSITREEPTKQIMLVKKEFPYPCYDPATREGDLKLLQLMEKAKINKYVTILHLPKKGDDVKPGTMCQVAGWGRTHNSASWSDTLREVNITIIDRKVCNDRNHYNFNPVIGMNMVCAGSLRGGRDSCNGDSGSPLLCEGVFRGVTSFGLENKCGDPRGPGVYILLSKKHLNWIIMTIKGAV
Assay: In-gel fluorescence labeling of pro-form of hGzmA
Type: biochemical
Conditions: probe 50 nM, 2 h, 37 °C
Description: Figure 3 GzmA ABPs covalently and competitively label active human and mouse GzmA. […] Recombinant hGzmA (100 nM) was incubated with varying concentrations of each ABP at 37 °C. […] Recombinant hGzmA (100 nM) was preincubated with covalent inhibitors 1 or 2 (5 μM) for 2 h, followed by labeling with ABPs 3 -5 (50 nM) for 2 h at 37 °C. Note: […] C) Structure of qABP 6. D) Quenched natures of 5 and 6. […] F) Labeling of mGzmA (1 μM) with 5 and 6 (1 μM, 24 h, 37 °C). […] Recorded fluorescence at Ex/Em: 380/460 nm for residual GzmA proteolytic activity. […] B. Cell culture and preparation of cell lysates All cell lines were cultured at 37 °C under 5% CO2 in a humidified atmosphere. […] The supernatant was collected, and protein concentration was measured using a Pierce BCA protein assay. […] In-gel fluorescence imaging […] […] In-gel fluorescence and SYPRO-Ruby staining images were acquired on a Typhoon FLA9500 instrument, while western blot images were acquired on an […] […] Conditions for probe/inhibitor treatment for in-gel fluorescence analysis: Inhibitors and probes were incubated with active (or pro-) GzmA followed by treatment with 4X SDS reducing sample buffer. […] 20 μL of each sample was loaded onto a 15% polyacrylamide gel, which was then subjected to electrophoresis followed by the acquisition of in-gel fluorescence images. […]

## IGNR [compound 5]
  Labeling of pro-form of GzmA: No labeling
